# Test results reported in US20140005103A1, “SULFONAMIDE DERIVATIVES AND METHODS OF USE THEREOF FOR IMPROVING THE PHARMACOKINETICS OF A DRUG” (Merck, Sharp & Dohme Corp., priority 2012, published 2014).
# Assays:
# [1] = target: T1, CYP2C9 (Homo sapiens, UniProt P11712); assay: Cocktail CYP assay, diclofenac 4'-hydroxylation; type: in vitro ADME; details: human liver microsomes, 5 μM diclofenac; test concentrations up to 10 μM
# T1 construct: 0.1 mg/mL protein human liver microsomes (BD Gentest); tissue BD Gentest; host or cells: human liver microsomes
# Protocol: (§1) Determination of IC50 in a Cocktail Assay for CYPs 1A2, 2C9, 2C19, 2D6 and 3A4
# (§2) This assay was performed in a standard 96-well plate design. IC50 values were calculated from the percent inhibition observed for each test compound at 6 concentrations (for example, 0.0032, 0.016, 0.08, 0.4, 2 and 10 μM). The incubation substrate mix contains 10 μM phenacetin (1A2), 5 μM diclofenac (2C9), 30 μM mephenyloin (2C19), 5 μM dextromethorphan (2D6) and 2 μM midazolam (3A4), 0.1 mg/mL protein human liver microsomes (BD Gentest), 1 mM NAPDH, 3.3 mM MgCl2 and 100 mM potassium phosphate buffer (pH 7.4). The production of the metabolite of each probe substrate was determined after incubation for 10 min at 37° C. Quantitation of the metabolite peak area ratio against an internal standard (tolbutamide) was determined by LC/MS/MS analysis following acetonitrile treatment of the incubations.
# (§3) Samples were analyzed in the MRM mode with a SCIEX API-4000 mass spectrometer (Applied Biosystems, Foster City, Calif.), with a Shimadzu LC-20 AD pump (Shimadzu corporation, Kyoto, JP) and a CTC PAL autosampler (Agilent Technologies, Switzerland). A Phenomenex, Luna, […], 100 A, 2.00×30 mm HPLC column was used for the separation. The mobile phases were: (A) 0.1% formic acid in water and (B) 0.1% formic acid in acetonitrile. The binary gradient was as follows.
# (§4) The peak area ratio of the analyte to the internal standard was used to quantify the metabolite. The values of peak area ratios in the presence of test compound were compared to those of maximum or minimum controls and were expressed as % inhibition by interpolating between the maximum and minimum peak area ratios. Incubations with no inhibitor were defined as the maxima.
# (§5) The following equation was used to calculate the % inhibition:
# (§6) [1−[(X−Low control)/(High control−Low control)]]*100
# (§7) For the IC50 calculation, SigmaPlot was used to plot the mean % inhibition versus the test compound concentrations and for non-linear regression analysis of the data. Depending on the range of data points defining the inhibition curve, the data may have been fit to the 4-parameter logistic equation.
# [2] = target: T2, CYP2D6 (Homo sapiens, UniProt P10635); assay: Cocktail CYP assay, dextromethorphan O-demethylation; type: in vitro ADME; details: human liver microsomes, 5 μM dextromethorphan; test concentrations up to 10 μM
# T2 construct: 0.1 mg/mL protein human liver microsomes (BD Gentest); tissue BD Gentest; host or cells: human liver microsomes
# Protocol: as §1, §2, §3, §4, §5, §6, §7
# [3] = target: T3, human CYP11B2 (Homo sapiens, UniProt P19099); assay: IC50 vs CYP11B2 by aldosterone synthesis in V79 cells; type: cell-based; details: V79 cells expressing human CYP11B2, 750 nM DOC, aldosterone HTRF; test concentrations 0.5-10000 nM
# T3 construct: expressed in transfected cells
# T3 sequence (P19099 25-503): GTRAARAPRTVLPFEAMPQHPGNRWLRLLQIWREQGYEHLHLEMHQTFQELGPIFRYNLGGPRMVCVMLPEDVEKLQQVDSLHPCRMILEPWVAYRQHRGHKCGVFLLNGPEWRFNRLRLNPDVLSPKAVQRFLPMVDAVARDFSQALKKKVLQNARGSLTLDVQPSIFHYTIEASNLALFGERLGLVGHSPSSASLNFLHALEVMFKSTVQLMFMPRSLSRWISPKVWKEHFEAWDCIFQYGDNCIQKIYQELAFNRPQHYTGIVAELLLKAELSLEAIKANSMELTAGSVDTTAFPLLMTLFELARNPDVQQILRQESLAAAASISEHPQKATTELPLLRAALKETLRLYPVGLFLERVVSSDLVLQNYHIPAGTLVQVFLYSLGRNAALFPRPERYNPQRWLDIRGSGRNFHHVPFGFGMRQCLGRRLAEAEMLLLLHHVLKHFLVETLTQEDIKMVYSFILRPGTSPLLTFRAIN
# Protocol: Determination of IC50 vs CYP11B1/CYP11B2 by Measurement of Cortisol/Aldosterone Synthesis
# This assay was performed in a standard 384-well plate design using cultured V79 cells stably expressing human CYP11B1 or human CYP11B2. Test compounds at 10 concentrations (for example, 10000, 3333.3, 1111.1, 370.4, 123.5, 41.2, 13.7, 4.6, 1.5 and 0.5 nM) were added in 384-well plate after the cell-seeding procedure. The incubation substrate contains 1500 nM RSS for CYP11B1 assay/750 nM DOC for CYP11B2 assay. The
# Cortisol/Aldosterone production of cell culture supernatant was determined by Cortisol/Aldosterone HTRF kit after for about 15 hours incubation at RT (protect from light). IC50 values were calculated from the percent inhibition observed for each test compound at 10 concentrations.
# The assay plate was read using Envision (Perkin Elmer, Waltham, Mass.) at 665 nm and 590 nm (using Filter Barcode of 217#, 205#; Mirror Barcode of 446#).
# Data are analyzed using Assay Data Analyzer. All ratio data (665 nm/590 nm) are back calculated according to the standard curve, resulting in Cortisol/Aldosterone concentrations. IC50 values are reported as the Inflection Point (IP) of a four parameter fit of the titration data.
# as §5
# % Activity=100×{1−(Sample_back calculated Cortisol/Aldosterone concentration−LC_back calculated Cortisol/Aldosterone concentration)/(HC_back calculated Cortisol/Aldosterone concentration−LC_back calculated Cortisol/Aldosterone concentration)}
# T2 sequence (P10635 whole entry): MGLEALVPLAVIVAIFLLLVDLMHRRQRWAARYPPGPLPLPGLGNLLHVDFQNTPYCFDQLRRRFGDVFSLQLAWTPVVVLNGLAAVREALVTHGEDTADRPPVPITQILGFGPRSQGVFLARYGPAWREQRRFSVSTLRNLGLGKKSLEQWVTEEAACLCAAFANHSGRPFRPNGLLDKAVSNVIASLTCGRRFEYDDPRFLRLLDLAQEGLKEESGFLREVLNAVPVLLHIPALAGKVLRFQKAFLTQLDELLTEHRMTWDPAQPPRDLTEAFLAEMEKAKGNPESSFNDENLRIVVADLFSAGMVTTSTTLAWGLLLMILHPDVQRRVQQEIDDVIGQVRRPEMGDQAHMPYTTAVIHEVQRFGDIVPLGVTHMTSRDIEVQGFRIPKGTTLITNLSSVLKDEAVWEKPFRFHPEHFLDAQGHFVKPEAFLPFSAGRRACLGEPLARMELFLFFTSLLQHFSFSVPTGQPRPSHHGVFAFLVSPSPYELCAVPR
# T1 sequence (P11712 whole entry): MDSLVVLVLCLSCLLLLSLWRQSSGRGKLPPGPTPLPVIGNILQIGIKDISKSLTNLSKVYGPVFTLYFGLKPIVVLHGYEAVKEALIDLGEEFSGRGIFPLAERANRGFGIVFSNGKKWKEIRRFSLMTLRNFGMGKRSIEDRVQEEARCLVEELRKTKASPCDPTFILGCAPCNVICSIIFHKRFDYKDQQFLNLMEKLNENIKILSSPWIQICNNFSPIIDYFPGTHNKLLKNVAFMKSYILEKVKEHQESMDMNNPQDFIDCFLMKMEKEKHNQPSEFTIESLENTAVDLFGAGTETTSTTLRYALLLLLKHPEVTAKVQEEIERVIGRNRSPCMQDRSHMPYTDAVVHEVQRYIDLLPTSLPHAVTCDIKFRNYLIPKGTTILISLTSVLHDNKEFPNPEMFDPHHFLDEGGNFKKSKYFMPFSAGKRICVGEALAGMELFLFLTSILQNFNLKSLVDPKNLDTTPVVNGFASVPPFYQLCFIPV
structure (smiles),measurement,setting,value
C[C@H](c1ccc(F)cc1)n1cncc1CN1CCN(S(=O)(=O)c2ccc(N3CCNCC3)cn2)CC1 [Compound 28],IC50,[1],6.61 µM
same,IC50,[2],6.5 µM
same,IC50,[3],4.64 µM
